Laboratory results as given in ChEMBL document CHEMBL5620426, “Discovery of 3-(1H-benzo[d]imidazole-2-yl)-1H-pyrazol-4 -amine derivatives as novel and potent syk inhibitors for the treatment of hematological malignancies” (Eur J Med Chem, 2023).

Tests used:
[1] = target: T1, Tyrosine-protein kinase SYK (Homo sapiens, UniProt P43405); test: Inhibition of Syk (unknown origin) preincubated for 20 mins followed by 33P-gamma-ATP measured after 120 mins by HotSpot assay
[2] = target: T1, Tyrosine-protein kinase SYK; test: Inhibition of Syk (unknown origin) assessed as enzyme activity at 2 uM preincubated for 20 mins followed by 33P-gamma-ATP measured after 120 mins by HotSpot assay relative to control; design: scale not given: the % may be the effect or the level left; conditions: time 140.0 min
Ramos = test: Inhibition of […] in serum-starved human Ramos cells incubated for 1 hr followed by anti-human IgM F(ab)2 measured after 5 mins; type: functional, cell-based
MV4-11 = test: Inhibition of cell viability in human MV4-11 cells incubated for 72 hrs by Cell Titer Glo assay; type: functional, cell-based; conditions: MV4-11, 72 h
[3] = Metabolic stability in human liver microsomes assessed as half life at […] incubated for 60 mins in presence of NADPH by LC-MS/MS analysis; type: ADME, Microsome
[4] = Metabolic stability in human liver microsomes assessed as intrinsic clearance at […] incubated for 60 mins in presence of NADPH by LC-MS/MS analysis; type: ADME, Microsome; conditions: read-out: CLH

Structure (SMILES) | IC50 [1] [nM] | Activity [2] [%] | further results
Cc1nc(Nc2c[nH]nc2-c2nc3cc(C)c(C)cc3[nH]2)c2cc[nH]c2n1 | 154 |  | 
Nc1cccc(CNc2c[nH]nc2-c2nc3ccccc3[nH]2)c1 |  | 52.6 | 
CN(C)c1cccc2[nH]c(-c3n[nH]cc3Nc3ncnc4[nH]ccc34)nc12 | 11.1 |  | IC50 (Ramos): 18.5 nM; IC50 (MV4-11): 20.4 nM; half-life [3]: 33.3 min; microsomal CLint [4]: 52.2 µL/min/mg
Cc1cc2nc(-c3n[nH]cc3Nc3ncnc4[nH]ccc34)[nH]c2cc1C | 3.6 |  | IC50 (Ramos): 47.7 nM; IC50 (MV4-11): 29.8 nM; half-life [3]: 19.7 min; microsomal CLint [4]: 70.4 µL/min/mg
c1cc(N2CCCC2)c2nc(-c3n[nH]cc3Nc3ncnc4[nH]ccc34)[nH]c2c1 | 14.5 |  | IC50 (Ramos): 26.8 nM; IC50 (MV4-11): 82.5 nM; half-life [3]: 44.4 min; microsomal CLint [4]: 78.1 µL/min/mg
c1nc(Nc2c[nH]nc2-c2nc3cc(OCCN4CCOCC4)ccc3[nH]2)c2cc[nH]c2n1 | 1.1 |  | IC50 (Ramos): 30.7 nM; IC50 (MV4-11): 12.4 nM; half-life [3]: 27.2 min; microsomal CLint [4]: 63.9 µL/min/mg
c1nc(Nc2c[nH]nc2-c2nc3cc(N4CCCCC4)ccc3[nH]2)c2cc[nH]c2n1 | 5.9 |  | IC50 (Ramos): 184 nM; IC50 (MV4-11): 66.4 nM
Cc1cc2nc(-c3n[nH]cc3Nc3ncnc4sccc34)[nH]c2cc1C | 77.6 |  | 
Cc1cccc2[nH]c(-c3n[nH]cc3Nc3ncnc4[nH]ccc34)nc12 | 5.6 |  | IC50 (Ramos): 39.2 nM; IC50 (MV4-11): 11 nM; half-life [3]: 97.8 min; microsomal CLint [4]: 14.2 µL/min/mg
Cc1cc2nc(-c3n[nH]cc3Nc3ccnc4[nH]ccc34)[nH]c2cc1C | 28.2 |  | 

More lines, main results first:

IC50 [1] [nM] | Activity [2] [%] | Structure (SMILES) | further results
20.5 |  | c1ccc2[nH]c(-c3n[nH]cc3Nc3ncnc4[nH]ccc34)nc2c1 | 
321 |  | COC(=O)c1cc(Nc2c[nH]nc2-c2nc3ccccc3[nH]2)nc(Cl)n1 | 
531 |  | O=C(Nc1nccc(Nc2c[nH]nc2-c2nc3ccccc3[nH]2)n1)c1ccccc1 | 
 | 92.3 | Cn1c(-c2n[nH]cc2Nc2ccnc(N)n2)nc2ccccc21 | 
 | 36.3 | c1ccc2[nH]c(-c3n[nH]cc3Nc3ccnc(NC4CCCC4)n3)nc2c1 | 
 | 18.5 | c1ccc2[nH]c(-c3n[nH]cc3Nc3ncnc4c3CCC4)nc2c1 | 
 | 40.5 | CCN(CC)CCNc1nccc(Nc2c[nH]nc2-c2nc3ccccc3[nH]2)n1 | 
240 |  | Clc1nccc(Nc2c[nH]nc2-c2nc3ccccc3[nH]2)n1 | 
 | 47.9 | c1ccc2[nH]c(-c3n[nH]cc3Nc3ccnc(NCC4CCCCC4)n3)nc2c1 | 
60.1 |  | Nc1nccc(Nc2c[nH]nc2-c2nc3ccccc3[nH]2)n1 | 
107 |  | c1ccc2[nH]c(-c3n[nH]cc3Nc3ncnc4ccccc34)nc2c1 | 
 | 91.2 | Clc1cc(Nc2c[nH]nc2-c2nc3ccccc3[nH]2)nc(N2CCOCC2)n1 | 
